Source: patent US6017880A, “Inhibition of retrovirus infection” (Amgen Inc., priority 1995, dated 2000)

System: U937 cells
Experiment: Number of SLPI binding sites on PMA-induced U937 cells (Scatchard plot)
Format: cell-based, human
Conditions: PMA 25 ng per ml, 48 hours, versus non-induced cells
Procedure: U937 cells were induced by 13-phorbol-12-myristate acetate ("PMA").
U937 cells at an initial concentration of 10,000 cells per ml were placed in two flasks. PMA was added to one flask at a final concentration of 25 ng per ml. After 48 hours, cells were harvested from both flasks. Using the method of Dripps et al., J. Biol. Chem., Vol. 266, No. 16, pp. 10331-10336 (1991), and labelling with I-125, having a specific activity of 91.5 Curries per millimole, the number of SLPI binding sites was determined. […] In this experiment, the Kd in non-induced cells was 1.1 lnM; The Kd in PMA-induced cells was 1.0 nM. The reduction in the number of SLPI binding sites in the PMA-induced cells is consistent with SLPI binding to elastase and cathepsin G on the cell surface.

Compound: CCCCCCCCCCCCCC(=O)O[C@@H]1[C@@H](C)[C@@]2(O)[C@@H](C=C(CO)C[C@]3(O)C(=O)C(C)=C[C@@H]23)[C@@H]2C(C)(C)[C@]12OC(C)=O [PMA, 13-phorbol-12-myristate acetate]
- Reduction in the number of SLPI binding sites: 70%
